According to patent US10548894B2, “Combination therapy” (Array BioPharma Inc., priority 2013, dated 2020):

Tested on: WM-266-4 cells
Assay: Microscopy imaging assay (viable nuclei count), 72 h
Assay type: cell-based
Settings: Homo sapiens, WM-266-4 parent, single agent
Description: Compound stocks are prepared in DMSO at a final concentration of 10 mM. Working stocks are serially diluted in the appropriate cell culture medium in 3-fold increments to achieve final assay concentrations ranging from 2.7 μM to 1.2 nM.
A-375 and WM-266-4 cells were purchased from American Type Culture Collection (ATCC). The A-375 cells were cultured in DMEM medium (ATCC) and the WM-266-4 cells were cultured in EMEM medium (ATCC) both supplemented with 10% fetal bovine serum (Gibco) and incubated at 37° C./5% CO2. The cell lines engineered to express commonly occurring alleles indicative of resistance were acquired from Novartis-Emeryville. These resistant models include, A-375 cells expressing mutant MEK1P124L, truncated p61-BRAFV600E, or mutant NRASQ61K, and WM-266-4 cells expressing mutant MEK1C121S, truncated p61-BRAFV600E, or mutant NRASQ61K. These cells were cultured in the appropriate parental medium with selection marker G418 and in the presence of 5 uM LFE158 (MEK mutants) or LIH720 (truncated p61-BRAFV600E).
For screening, cells were seeded in 80 ul of medium in 384-well plates (Thermo Scientific, cat#4332) at 500 (A-375) or 750 (WM-266-4) cell densities per well using a MultiDrop Combi (Thermo-Fisher) with an 8-channel standard cassette. To promote an even distribution of cells across the entire well, cells were briefly centrifuged at 1000 RPM and incubated at room temperature 30 minutes. All plates were incubated at 37° C., 5% CO2 for 24 h prior to compound addition. Compound stock was freshly prepared in the appropriate culture medium, and added using a PAA robot equipped with a 200n1 pin tool. In a minimum of three replicate wells, single agent and combination effects after 72 hours, were assessed by both quantification of cellular ATP levels via Cell Titer Glo (Promega) according to the manufacturer's protocol and by microscopy imaging. For imaging, cells were fixed to the plates and permeabilized with a solution of 10% PFA, 0.3% TX-100 in PBS via a WellMate dispenser with controlled dispensing speeds. Cell nuclei were stained with Hoechst 33342 (H3570, Invitrogen), and all necessary washing steps were performed by a BioTek washer.
An automated image analysis pipeline was established using custom-made scripts in the open-source, statistical programming language R, and functions of the BioConductor package EBImage. The goal was to quantify the number of viable nuclei (cells) per well as an approximation for cell viability. The pipeline was comprised of seven steps: (I.) smoothing of the image to reduce the number of intensity peaks, (II.) application of a thresholding function to separate the foreground (signal) from the background (noise), (III.) identification of local maxima in the foreground that serve as seeds for the nuclei, (IV.) filtering of local maxima in close proximity, (V.) propagation of the nuclei from remaining local maxima, (VI.) and extraction of object features from the propagated nuclei (numbers of nuclei, size features and intensity features). As a last step (VII.), to exclude debris (e.g. fragmented nuclei) from counting, objects identified in DMSO- and Staurosporin-treated wells were used to obtain feature distributions for viable and fragmented nuclei, respectively. These were used to set cut-offs differentiating between viable and fragmented nuclei. The number of fragmented nuclei was subtracted from the total number of identified objects and the result was reported as final count for that well.
Data comprised triplicate measurements for each treatment (compound) condition, 42 replicates of DMSO-treated wells, and duplicates of Staurosporin-treated wells. The data was normalized to the median of the DMSO measurements and summarized by calculating the median of the triplicates. Data was imported into Chalice to calculate compound synergies.

COC(=O)N[C@@H](C)CNc1nccc(-c2cn(C(C)C)nc2-c2cc(Cl)cc(NS(C)(=O)=O)c2F)n1 [Compound of Formula (I)] was tested, and the IC50 was 3 nM.
